Assay results: US20040058983A1, “Plan-derived and synthetic phenolic compounds and plant extracts, effective in the treatment and prevention of chlamydial infections” (priority 2000, published 2004)
Read-outs that look alike come from different tables or passages of the source.

Legend:
C. pneumoniae = experiment: Direct anti-chlamydial effect of compounds and mixtures on C. pneumoniae (Example 5); format: cell-based; details: for inhibition at 50 µM: Chlamydia pneumoniae
Protocol: Direct Anti-Chlamydial Effect of Plant-Derived Phenolic Compounds, Certain Synthetic Compounds and Mixtures on C. pneumoniae
The concentration used was 50 μM.
The cultivated HL cells are infected with C. pneumoniae EB's. The EB's which have invaded the cell are changed into the metabolically active reticulate body (RB) which are dividing by binary fission in the endosome vacuole or inclusion.
After a certain time (about 72 hr) the C. pneumoniae RB's are condensing back into EB's, after which the inclusions are broken, the host cells are broken and the EB's are liberated. In this method the intention is to verify the inclusions before the breaking up of the host cells.
On the day preceding the infection the host cells are inoculated on a 24-well plate: the cells are harvested by trypsinisation, they are suspended in ca. 5 ml of the nutrition liquid and counted in a Burker's chamber. Each well are seeded using a concentration of 250000-400000 cells/well for cultivation. Before the addition of the cells to the well is if necessary round cover glass (diameter 13 mm) put for staining. Nutrition liquid is added so that the volume is 1 ml/well. On the following day the cells are infected with the desired bacterium.
Solution to be used in the infection and containing chlamydiae particles is mixed throughout. The old nutrition liquid is aspirated away. By the infection the inoculum which has been stored at −70° C. is diluted to an IFU concentration of ca. 10^3 so that the volume of the solution is at least 200 μl/well on a 24-well plate. The cells are infected by centrifuging at 1600 rpm (550×g)/1 hr. The nutrition medium is aspirated away and changed to a maintenance medium containing cyclohexamide and also containing the studied compound (DMSO concentration 0.2%), 1 ml/well. The cells are incubated in a 5% CO2 atmosphere at +35° C. The cells infected with C. pneumoniae are incubated for 3 days. After 2-3 days the maintenance medium is removed and the cells washed with 1×1 ml of PBS. To the wells 200 μl of SPG are added for further infection, harvested with a pipette tip and transferred into tubes. This is used for infecting new cells in the same way as above to test the inhibition of infectivity (chlamydiasidic effect).
The nutrition medium, which is above the cover glass left for staining, is aspirated away. The infected cells are fixed on the cover glass with methanol for 10 min. The cover glass is removed from the well and -transferred onto a suitable fluorescein-conjugated monoclonal antibody on Parafilm in a moist chamber with the cell-containing side down. The cover glass is incubated for 30 min at +37° C. and washed twice with PBS and once with water. Finally it is dried. The cover glass is put with the cell-containing side down on an object glass containing a fixative (e.g. Mounting medium). When viewed under the fluorescent microscope, cell culture specimens infacted with chlamydiae show a characteristic apple-green fluorescence of inclusions against a red counterstained background.

Ca^2+ intake in the cell = experiment: Effect of the compounds on the calcium influx (Ca2+ intake) to the cell; format: cell-based; details: compound 20 μg/ml; − = decrease, + = increase
Source text: (§1) In the following Table I some of the preferred plant-derived phenolic compounds according to the present invention, the effect of the compounds on the calcium influx to the cell, the antioxidant effect as well as the chemical structure of the compounds are presented.

[1] = Antioxidant effect, IC50 against DPPH; format: biochemical; details: read-out: IC50 [moles L^−1] against DPPH′
Source text: as §1

Row | Compound | Inhibition % (C. pneumoniae; 50 μM) [%] | inhibition at 50 µM (C. pneumoniae; 50 μM, read-out: Inhibition %) [%] | IC50 [1] [µM] | also measured
1 | COc1ccccc1-c1cc(=O)c2ccc3ccccc3c2o1 [2′-methoxy-α-naphtoflavone] | 100 | – | – | –
2 | O=c1oc2cc(O)ccc2cc1-c1nc2ccccc2o1 [3-(2-benzoxazoyl)umbelliferone] | 28 | – | – | –
3 | CC(=O)CC(c1ccccc1)c1c(O)c2ccccc2oc1=O (stereo not drawn) [3-(α-acetonylbenzyl)-4-hydroxycoumarin] | – | 0 | – | –
4 | O=C(c1ccccc1)c1cc2c(ccc3ccccc32)oc1=O [3-benzoylbenzo(F)coumarin] | 62 | – | – | –
5 | Cc1c(-c2ccccc2)c(=O)oc2ccccc12 [4-methyl-3-phenylcoumarin] | – | 0 | – | –
6 | COc1ccc2oc(-c3ccccc3OC)cc(=O)c2c1 [6,2′-dimethoxyflavone] | – | 73 | – | –
7 | O=C(O)c1cc2cc(Br)cc(Br)c2oc1=O [6,8-dibromocoumarin-3-carboxylic acid] | – | 0 | – | –
8 | Cc1ccc2oc(=O)ccc2c1 [6-methylcoumarin] | – | 71 | – | –
9 | CCN(CC)c1ccc2cc(C(=O)c3cccs3)c(=O)oc2c1 [7-diethylamino-3-thenoylcoumarin] | 100 | – | – | –
10 | Oc1cc(O)c2c(c1)O[C@H](c1ccc(O)c(O)c1)[C@@H](O)C2 [(+)-Catechin] | 76 | – | – | –
11 | O=C(O[C@@H]1Cc2c(O)cc(O)cc2O[C@@H]1c1ccc(O)c(O)c1)c1cc(O)c(O)c(O)c1 [(−)-Epicatechin gallate] | 85 | – | – | –
12 | Oc1cc(O)c2c(c1)O[C@H](c1ccc(O)c(O)c1)[C@H](O)C2 [(−)-Epicatechin] | 75 | – | – | –
13 | Oc1cc(O)c2c(c1)O[C@H](c1cc(O)c(O)c(O)c1)[C@H](O)C2 [(−)-Epigallocatechin] | 58 | – | – | –
14 | COc1ccc(-c2cc(=O)c3c(O)cc(O)cc3o2)cc1 [Acacetin] | – | – | > 3520 | Effect on Ca^2+ intake [%] (Ca^2+ intake in the cell): −1.39%
15 | O=c1cc(-c2ccccc2)oc2c1ccc1ccccc12 [Alpha-naphtoflavone] | 92 | – | – | –
16 | O=c1cc(-c2ccc(O)cc2)oc2cc(O)cc(O)c12 [Apigenin] | – | 100 | > 3700 | inhibition at 20 µg/mL (Ca^2+ intake in the cell): 29.3%
17 | O=C(O)c1ccccc1 [Benzoic acid] | 44 | – | > 8190 | Effect on Ca^2+ intake [%] (Ca^2+ intake in the cell): −9.82%
18 | O=C(O)/C=C/c1ccc(O)c(O)c1 [Caffeic acid] | – | 78 | 21.4 | inhibition at 20 µg/mL (Ca^2+ intake in the cell): -9.71%
19 | CCN(CC)c1ccc2cc(-c3nc4ccccc4n3C)c(=O)oc2c1 [Coumarin 30] | 50 | – | – | –
20 | Cc1cc(=O)oc2c3c4c(cc12)CCCN4CCC3 [Coumarin 102] | 63 | – | – | –
21 | O=c1oc2c3c4c(cc2c2c1CCC2)CCCN4CCC3 [Coumarin 106] | 100 | – | – | –
22 | O=c1ccc2ccccc2o1 [Coumarin] | – | 28 | – | –
23 | O=c1c(-c2ccc(O)cc2)coc2cc(O)ccc12 [Daidzein] | 51 | – | > 3930 | Effect on Ca^2+ intake [%] (Ca^2+ intake in the cell): −26.2%
24 | O=c1c(-c2ccc(O)cc2)coc2cc(O[C@@H]3O[C@H](CO)[C@@H](O)[C@H](O)[C@H]3O)ccc12 [Daidzin] | 0 | – | – | Effect on Ca^2+ intake [%] (Ca^2+ intake in the cell): +7.6%
25 | CCCCCCCCCCCCOC(=O)c1cc(O)c(O)c(O)c1 [Dodecyl gallate] | – | 100 | 15.4 | inhibition at 20 µg/mL (Ca^2+ intake in the cell): 40.4%
26 | COc1cc(/C=C/C(=O)O)ccc1O [Ferulic acid] | – | 14 | 44.3 | inhibition at 20 µg/mL (Ca^2+ intake in the cell): -9.23%

Row | Compound | Inhibition % (C. pneumoniae; 50 μM) [%] | inhibition at 50 µM (C. pneumoniae; 50 μM, read-out: Inhibition %) [%] | IC50 [1] [µM] | also measured
27 | O=c1cc(-c2ccccc2)oc2ccccc12 [Flavone] | – | 90 | > 4500 | inhibition at 20 µg/mL (Ca^2+ intake in the cell): 63.5%
28 | O=C(O)c1cc(O)c(O)c(O)c1 [Gallic acid] | – | 27 | 21.5 | inhibition at 20 µg/mL (Ca^2+ intake in the cell): 5.33%
29 | O=c1c(-c2ccc(O)cc2)coc2cc(O)cc(O)c12 [Genistein] | – | 60 | > 3700 | inhibition at 20 µg/mL (Ca^2+ intake in the cell): 54.6%
30 | O=c1c(-c2ccc(O)cc2)coc2cc(O[C@@H]3O[C@H](CO)[C@@H](O)[C@H](O)[C@H]3O)cc(O)c12 [Genistin] | – | 37 | – | inhibition at 20 µg/mL (Ca^2+ intake in the cell): 3.39%
31 | COc1cc(-c2oc3cc(O)cc(O)c3c(=O)c2O)ccc1O [Isorhamnetin] | 70 | – | 18.1 | Effect on Ca^2+ intake [%] (Ca^2+ intake in the cell): +52.4%
32 | O=c1cc(-c2ccc(O)c(O[C@@H]3O[C@H](CO)[C@@H](O)[C@H](O)[C@H]3O)c2)oc2cc(O[C@@H]3O[C@H](CO)[C@@H](O)[C@H](O)[C@H]3O)cc(O)c12 [Luteolin-3′,7-glucoside] | 45 | – | – | Effect on Ca^2+ intake [%] (Ca^2+ intake in the cell): −14.6%
33 | O=c1cc(-c2ccc(O)c(O)c2)oc2cc(O[C@@H]3O[C@H](CO)[C@@H](O)[C@H](O)[C@H]3O)cc(O)c12 [Luteolin-7-glucoside] | 23 | – | 10.7 | Effect on Ca^2+ intake [%] (Ca^2+ intake in the cell): −16.3%
34 | O=c1cc(-c2ccc(O)c(O)c2)oc2cc(O)cc(O)c12 [Luteolin] | – | 100 | 12 | inhibition at 20 µg/mL (Ca^2+ intake in the cell): 51.4%
35 | COC(=O)c1cc(O)c(O)c(O)c1 [Methyl gallate] | – | 100 | 5.09 | –
36 | O=C1C[C@@H](c2ccc(O)cc2)Oc2cc(O)cc(O)c21 [Naringenin] | – | 16 | > 3670 | inhibition at 20 µg/mL (Ca^2+ intake in the cell): 56.3%
37 | C[C@@H]1O[C@@H](O[C@H]2[C@H](Oc3cc(O)c4c(c3)O[C@H](c3ccc(O)cc3)CC4=O)O[C@H](CO)[C@@H](O)[C@@H]2O)[C@H](O)[C@H](O)[C@H]1O [Naringin] | 66 | – | – | Effect on Ca^2+ intake [%] (Ca^2+ intake in the cell): +6.5%
38 | Oc1cc(O)c2c(c1)O[C@H](c1ccc(O)c(O)c1)[C@H](O)[C@H]2c1c(O)cc(O)c2c1O[C@H](c1ccc(O)c(O)c1)[C@@H](O)C2 [Procyanidin B1] | 30 | – | – | –
39 | Oc1cc(O)c2c(c1)O[C@H](c1ccc(O)c(O)c1)[C@H](O)[C@H]2c1c(O)cc(O)c2c1O[C@H](c1ccc(O)c(O)c1)[C@H](O)C2 [Procyanidin B2] | 0 | – | – | –
40 | CCCOC(=O)c1cc(O)c(O)c(O)c1 [Propyl Gallate] | – | 100 | 13.3 | inhibition at 20 µg/mL (Ca^2+ intake in the cell): 37.9%
41 | C[C@@H]1O[C@@H](Oc2c(-c3ccc(O)c(O)c3)oc3cc(O)cc(O)c3c2=O)[C@H](O)[C@H](O)[C@H]1O [Quercitrin] | 50 | – | 12.9 | Effect on Ca^2+ intake [%] (Ca^2+ intake in the cell): +20.1%
42 | Oc1ccc(/C=C/c2cc(O)cc(O)c2)cc1 [Resveratrole] | 54 | – | – | –
43 | C=C(C)[C@H]1Cc2c(ccc3c2O[C@@H]2COc4cc(OC)c(OC)cc4[C@@H]2C3=O)O1 [Rotenone] | – | – | – | inhibition at 50 µM (C. pneumoniae): 100%
44 | C[C@@H]1O[C@@H](OC[C@H]2O[C@@H](Oc3c(-c4ccc(O)c(O)c4)oc4cc(O)cc(O)c4c3=O)[C@H](O)[C@@H](O)[C@@H]2O)[C@H](O)[C@H](O)[C@H]1O [Rutin] | 46 | – | 10.2 | Effect on Ca^2+ intake [%] (Ca^2+ intake in the cell): −3.88%
45 | COc1cc2ccc(=O)oc2cc1O [Scopoletin] | – | 96 | – | –
46 | COc1cc(C(=O)O)cc(OC)c1O [Syringic acid] | – | 32 | 32.6 | inhibition at 20 µg/mL (Ca^2+ intake in the cell): 10.9%
47 | O=c1ccc2ccc(O)cc2o1 [Umbelliferone] | – | 75 | – | –
48 | C[C@@H]1O[C@@H](O[C@@H]2[C@@H](O)[C@H](O)[C@@H](CO)O[C@H]2c2c(O)cc(O)c3c(=O)cc(-c4ccc(O)cc4)oc23)[C@H](O)[C@H](O)[C@H]1O [Vitexin-2″-O-rhamnoside] | 11 | – | – | Effect on Ca^2+ intake [%] (Ca^2+ intake in the cell): −14.6%
49 | O=c1cc(-c2ccc(O)cc2)oc2c([C@@H]3O[C@H](CO)[C@@H](O)[C@H](O)[C@H]3O)c(O)cc(O)c12 [Vitexin] | 3 | – | – | Effect on Ca^2+ intake [%] (Ca^2+ intake in the cell): −2.12%
50 | COc1c2occc2cc2ccc(=O)oc12 [Xanthotoxin] | 94 | – | – | –
51 | Methoxy psoralen | 100 | – | – | –
